Six compounds from patent US9486506B2 (Novo Nordisk A/S, priority 2011, dated 2016) can be followed below.

Each structure is given as a SMILES string. Numbered stars: 1 amine (or outer) side, 2 acyl side, 3 side chain; on linkers, the order of the positions; unused ones are H or OH. Side chains are listed from the residue outwards. Peptide text beside a SMILES is read from it. * marks the point of attachment. C18 diacid = O=C(O)CCCCCCCCCCCCCCCCC(=O)*; C16 diacid = O=C(O)CCCCCCCCCCCCCCC(=O)*; γGlu = O=C(O)[C@H](CCC(=O)[*:2])N[*:1]; AEEA = NCCOCCOCC(=O)O

In this assay the target is T1, glucagon receptor (Homo sapiens, UniProt P47871).
T1 construct: expressed in transfected cells
T1 sequence (P47871 26-477): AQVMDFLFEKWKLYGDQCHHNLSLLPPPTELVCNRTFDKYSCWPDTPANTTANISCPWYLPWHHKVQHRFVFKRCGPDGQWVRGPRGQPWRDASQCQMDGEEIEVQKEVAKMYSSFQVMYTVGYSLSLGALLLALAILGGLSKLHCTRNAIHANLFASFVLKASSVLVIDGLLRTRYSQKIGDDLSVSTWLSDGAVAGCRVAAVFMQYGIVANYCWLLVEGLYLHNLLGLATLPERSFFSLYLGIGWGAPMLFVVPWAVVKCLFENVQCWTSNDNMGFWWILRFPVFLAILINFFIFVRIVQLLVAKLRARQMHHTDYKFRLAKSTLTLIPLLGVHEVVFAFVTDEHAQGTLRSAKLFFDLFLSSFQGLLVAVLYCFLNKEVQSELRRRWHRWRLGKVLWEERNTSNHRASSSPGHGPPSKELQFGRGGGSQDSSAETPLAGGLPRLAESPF
Briefly: Assay (I) Glucagon activity (cAMP biosensor, FLIPR). The assay is classed as cell-based.
Consider `CC(C)C[C@H](NC(=O)[C@H](Cc1ccc(O)cc1)NC(=O)[C@H](CCCCN)NC(=O)[C@H](CO)NC(=O)[C@H](Cc1ccc(O)cc1)NC(=O)[C@H](CC(=O)O)NC(=O)[C@H](CO)NC(=O)[C@@H](NC(=O)[C@H](Cc1ccccc1)NC(=O)[C@@H](NC(=O)CNC(=O)[C@H](Cc1c[nH]cn1)NC(=O)[C@H](CO)NC(=O)[C@@H](N)Cc1c[nH]cn1)[C@@H](C)O)[C@@H](C)O)C(=O)N[C@@H](CC(=O)O)C(=O)N[C@@H](CO)C(=O)N[C@@H](CCCNC(=N)N)C(=O)N[C@@H](CCCNC(=N)N)C(=O)N[C@@H](C)C(=O)N[C@@H](CCC(N)=O)C(=O)N[C@@H](CC(=O)O)C(=O)N[C@@H](Cc1ccccc1)C(=O)N[C@H](C(=O)N[C@@H](CCCCNC(=O)CC[C@H](NC(=O)CC[C@H](NC(=O)COCCOCCNC(=O)COCCOCCNC(=O)CC[C@H](NC(=O)CCCCCCCCCCCCCCCCC(=O)O)C(=O)O)C(=O)O)C(=O)O)C(=O)N[C@@H](Cc1c[nH]c2ccccc12)C(=O)N[C@@H](CC(C)C)C(=O)N[C@@H](CC(C)C)C(=O)N[C@@H](CC(N)=O)C(=O)N[C@H](C(=O)O)[C@@H](C)O)C(C)C` [Example 5, N^ε24-[(4S)-4-carboxy-4-[[(4S)-4-carboxy-4-[[2-[2-[2-[[2-[2-[2-[[(4S)-4-carboxy-4-(17-carboxyheptadecanoylamino)butanoyl]amino]ethoxy]ethoxy]acetyl]amino]ethoxy]ethoxy]acetyl]amino]butanoyl]amino]butanoyl]-[His^3,Lys^24,Leu^27]-Glucagon], for which the 50% effective concentration (EC50) stood at 0.105 nM.

In turn, `CC(C)C[C@H](NC(=O)[C@H](CC(=O)O)NC(=O)[C@H](CC(C)C)NC(=O)[C@H](Cc1ccc(O)cc1)NC(=O)[C@H](CCCNC(=N)N)NC(=O)[C@H](CO)NC(=O)[C@H](Cc1ccc(O)cc1)NC(=O)[C@H](CC(=O)O)NC(=O)[C@H](CO)NC(=O)[C@@H](NC(=O)[C@H](Cc1ccccc1)NC(=O)[C@@H](NC(=O)CNC(=O)[C@H](CCC(N)=O)NC(=O)[C@H](CO)NC(=O)[C@@H](N)Cc1c[nH]cn1)[C@@H](C)O)[C@@H](C)O)C(=O)N[C@@H](CCCNC(=N)N)C(=O)N[C@@H](CCCNC(=N)N)C(=O)N[C@@H](C)C(=O)N[C@@H](CCC(N)=O)C(=O)N[C@@H](CC(=O)O)C(=O)N[C@@H](Cc1ccccc1)C(=O)N[C@H](C(=O)N[C@@H](CCCCNC(=O)CC[C@H](NC(=O)CC[C@H](NC(=O)CC[C@H](NC(=O)CCCCCCCCCCCCCCC(=O)O)C(=O)O)C(=O)O)C(=O)O)C(=O)N[C@@H](Cc1c[nH]c2ccccc12)C(=O)N[C@@H](CC(C)C)C(=O)N[C@@H](CC(C)C)C(=O)N[C@@H](CO)C(=O)N[C@H](C(=O)O)[C@@H](C)O)C(C)C` [Example 91, N^ε24-[(4S)-4-carboxy-4-[[(4S)-4-carboxy-4-[[(4S)-4-carboxy-4-(15-carboxypentadecanoylamino)butanoyl]amino]butanoyl]amino]butanoyl]-[Arg12,Leu16,Lys24,Leu27,Ser28]-Glucagon] (H-HSQGTFTSDYSRYLDLRRAQDFVK([γGlu-γGlu-γGlu-C16 diacid])WLLST-OH) yielded an EC50 of 0.027 nM.

`CC(C)C[C@H](NC(=O)[C@H](CC(=O)O)NC(=O)[C@H](CC(C)C)NC(=O)[C@H](Cc1ccc(O)cc1)NC(=O)[C@H](CCCNC(=N)N)NC(=O)[C@H](CO)NC(=O)[C@H](Cc1ccc(O)cc1)NC(=O)[C@H](CC(=O)O)NC(=O)[C@H](CO)NC(=O)[C@@H](NC(=O)[C@H](Cc1ccccc1)NC(=O)[C@@H](NC(=O)CNC(=O)[C@H](CCC(N)=O)NC(=O)[C@H](CO)NC(=O)[C@@H](N)Cc1c[nH]cn1)[C@@H](C)O)[C@@H](C)O)C(=O)N[C@@H](CCCNC(=N)N)C(=O)N[C@@H](CCCNC(=N)N)C(=O)N[C@@H](C)C(=O)N[C@@H](CCC(N)=O)C(=O)N[C@@H](CC(=O)O)C(=O)N[C@@H](Cc1ccccc1)C(=O)N[C@H](C(=O)N[C@@H](CCCCNC(=O)CC[C@H](NC(=O)COCCOCCNC(=O)COCCOCCNC(=O)CC[C@H](NC(=O)CC[C@H](NC(=O)CCCCCCCCCCCCCCCCC(=O)O)C(=O)O)C(=O)O)C(=O)O)C(=O)N[C@@H](Cc1c[nH]c2ccccc12)C(=O)N[C@@H](CC(C)C)C(=O)N[C@@H](CC(C)C)C(=O)N[C@@H](CO)C(=O)N[C@H](C(=O)O)[C@@H](C)O)C(C)C` [Example 27, N^ε24-[(4S)-4-carboxy-4-[[2-[2-[2-[[2-[2-[2-[[(4S)-4-carboxy-4-[[(4S)-4-carboxy-4-(17-carboxyheptadecanoylamino)butanoyl]amino]butanoyl]amino]ethoxy]ethoxy]acetyl]amino]ethoxy]ethoxy]acetyl]amino]butanoyl]-[Arg^12,Leu^16,Lys^24,Leu^27,Ser^28]-Glucagon] (H-HSQGTFTSDYSRYLDLRRAQDFVK([γGlu-AEEA-AEEA-γGlu-γGlu-C18 diacid])WLLST-OH): the EC50 turned out to be 0.91 nM.

As to `CC(C)C[C@H](NC(=O)[C@H](CC(=O)O)NC(=O)[C@H](CC(C)C)NC(=O)[C@H](Cc1ccc(O)cc1)NC(=O)[C@H](CCCNC(=N)N)NC(=O)[C@H](CO)NC(=O)[C@H](Cc1ccc(O)cc1)NC(=O)[C@H](CC(=O)O)NC(=O)[C@H](CO)NC(=O)[C@@H](NC(=O)[C@H](Cc1ccccc1)NC(=O)[C@@H](NC(=O)CNC(=O)[C@H](CCC(N)=O)NC(=O)[C@H](CO)NC(=O)[C@@H](N)Cc1c[nH]cn1)[C@@H](C)O)[C@@H](C)O)C(=O)N[C@@H](CCCNC(=N)N)C(=O)N[C@@H](CCCNC(=N)N)C(=O)N[C@@H](C)C(=O)N[C@@H](CCC(N)=O)C(=O)N[C@@H](CCC(=O)O)C(=O)N[C@@H](Cc1ccccc1)C(=O)N[C@H](C(=O)N[C@@H](CCCCNC(=O)CC[C@H](NC(=O)CC[C@H](NC(=O)COCCOCCNC(=O)COCCOCCNC(=O)CC[C@H](NC(=O)CCCCCCCCCCCCCCCCC(=O)O)C(=O)O)C(=O)O)C(=O)O)C(=O)N[C@@H](Cc1c[nH]c2ccccc12)C(=O)N[C@@H](CC(C)C)C(=O)N[C@@H](CC(C)C)C(=O)N[C@@H](CO)C(=O)N[C@H](C(=O)O)[C@@H](C)O)C(C)C` [Example 46, N^ε24-[(4S)-4-carboxy-4-[[(4S)-4-carboxy-4-[[2-[2-[2-[[2-[2-[2-[[(4S)-4-carboxy-4-(17-carboxyheptadecanoylamino)butanoyl]amino]ethoxy]ethoxy]acetyl]amino]ethoxy]ethoxy]acetyl]amino]butanoyl]amino]butanoyl]-[Arg12,Leu16,Glu21,Lys24,Leu27,Ser28]-Glucagon] (H-HSQGTFTSDYSRYLDLRRAQEFVK([γGlu-γGlu-AEEA-AEEA-γGlu-C18 diacid])WLLST-OH), the EC50 is 0.095 nM.

`CC(C)C[C@H](NC(=O)[C@H](Cc1c[nH]c2ccccc12)NC(=O)[C@H](CCCCNC(=O)CC[C@H](NC(=O)CC[C@H](NC(=O)COCCOCCNC(=O)COCCOCCNC(=O)CC[C@H](NC(=O)CCCCCCCCCCCCCCC(=O)O)C(=O)O)C(=O)O)C(=O)O)NC(=O)[C@@H](NC(=O)[C@H](Cc1ccccc1)NC(=O)[C@H](CC(=O)O)NC(=O)[C@H](CCC(N)=O)NC(=O)[C@H](C)NC(=O)[C@H](CCCNC(=N)N)NC(=O)[C@H](CCCNC(=N)N)NC(=O)[C@@H](NC(=O)[C@H](CC(=O)O)NC(=O)[C@H](CC(C)C)NC(=O)[C@H](Cc1ccc(O)cc1)NC(=O)[C@H](CCCNC(=N)N)NC(=O)[C@H](CO)NC(=O)[C@H](Cc1ccc(O)cc1)NC(=O)[C@H](CC(=O)O)NC(=O)[C@H](CO)NC(=O)[C@@H](NC(=O)[C@H](Cc1ccccc1)NC(=O)[C@@H](NC(=O)CNC(=O)[C@H](CCC(N)=O)NC(=O)[C@H](CO)NC(=O)[C@@H](N)Cc1c[nH]cn1)[C@@H](C)O)[C@@H](C)O)C(C)C)C(C)C)C(=O)N[C@@H](CC(C)C)C(=O)N[C@@H](CO)C(=O)N[C@H](C(=O)O)[C@@H](C)O` [Example 97, N^ε24-[(4S)-4-carboxy-4-[[(4S)-4-carboxy-4-[[2-[2-[2-[[2-[2-[2-[[(4S)-4-carboxy-4-(15-carboxypentadecanoylamino)butanoyl]amino]ethoxy]ethoxy]acetyl]amino]ethoxy]ethoxy]acetyl]amino]butanoyl]amino]butanoyl]-[Arg12,Val16,Lys24,Leu27,Ser28]-Glucagon] (H-HSQGTFTSDYSRYLDVRRAQDFVK([γGlu-γGlu-AEEA-AEEA-γGlu-C16 diacid])WLLST-OH; N-terminus and C-terminus assumed) showed an EC50 of 0.026 nM.

As for `CC(C)C[C@H](NC(=O)[C@H](Cc1ccc(O)cc1)NC(=O)[C@H](CCCNC(=N)N)NC(=O)[C@H](CO)NC(=O)[C@H](Cc1ccc(O)cc1)NC(=O)[C@H](CC(=O)O)NC(=O)[C@H](CO)NC(=O)[C@@H](NC(=O)[C@H](Cc1ccccc1)NC(=O)[C@@H](NC(=O)CNC(=O)[C@H](CCC(N)=O)NC(=O)[C@H](CO)NC(=O)[C@@H](N)Cc1c[nH]cn1)[C@@H](C)O)[C@@H](C)O)C(=O)N[C@@H](CCC(=O)O)C(=O)N[C@@H](CO)C(=O)N[C@@H](CCCNC(=N)N)C(=O)N[C@@H](CCCNC(=N)N)C(=O)N[C@@H](C)C(=O)N[C@@H](CCC(N)=O)C(=O)N[C@@H](CCC(=O)O)C(=O)N[C@@H](Cc1ccccc1)C(=O)N[C@H](C(=O)N[C@@H](CCCCNC(=O)CC[C@H](NC(=O)CC[C@H](NC(=O)COCCOCCNC(=O)COCCOCCNC(=O)CC[C@H](NC(=O)CCCCCCCCCCCCCCC(=O)O)C(=O)O)C(=O)O)C(=O)O)C(=O)N[C@@H](Cc1c[nH]c2ccccc12)C(=O)N[C@@H](CC(C)C)C(=O)N[C@@H](CC(C)C)C(=O)N[C@@H](CO)C(=O)N[C@H](C(=O)O)[C@@H](C)O)C(C)C` [Example 71, N^ε24-[(4S)-4-carboxy-4-[[(4S)-4-carboxy-4-[[2-[2-[2-[[2-[2-[2-[[(4S)-4-carboxy-4-(15-carboxypentadecanoylamino)butanoyl]amino]ethoxy]ethoxy]acetyl]amino]ethoxy]ethoxy]acetyl]amino]butanoyl]amino]butanoyl]-[Arg12,Glu15,Glu21,Lys24,Leu27,Ser28]-Glucagon] (H-HSQGTFTSDYSRYLESRRAQEFVK([γGlu-γGlu-AEEA-AEEA-γGlu-C16 diacid])WLLST-OH), a half-maximal response (EC50) required 0.072 nM.

In general, EC50 refers to the midpoint of the concentration-response curve.
